Data as given in US20220347167A1, “A NEW TREATMENT FOR MEIBOMIAN GLAND DYSFUNCTION” (The Schepens Eye Research Institute, Inc., priority 2019, published 2022).

Test system: IHMGECs
Experiment: Cell number of IHMGECs (hemocytometer)
Assay type: cell-based, human
Description: After being treated with 21% O2, 1% O2, 10 μM Roxa or a combination for 10 days, cell numbers were counted with a hemocytometer and the cell lysates and cell culture supernatants were collected, as previously described in Liu et al. (2019) The ocular surface 17(2):310-317. DNase II activity in fresh samples was analyzed by SREDA in agarose gels according to published protocols in Liu et al. (2019) The ocular surface 17(2):310-317 and Oka et al. (2012) Nature 485:251-255. Cell lysates and culture media were used to measure the DNase II activity inside and outside of the cells, respectively [Liu et al. (2019) The ocular surface 17(2):310-317]. After incubation for 3-24 hours at 37° C., the area of the dark circle in the gel was measured under an UV trans-illuminator at 312 nm. For comparison between conditions, values were normalized to cell number.
Low O2 increases DNase II activity and promotes cell terminal differentiation of IHMGECs (Liu et al. Ocul Surf 2019; 17:310-317). To determine whether Roxa treatment can reproduce this hypoxic effect, IHMGECs were treated with Roxa in both normoxic and 1% O2 conditions for 10 days, prior to counting cell numbers and analyzing DNase II activity in cell lysates and supernatants.

Cc1nc(C(=O)NCC(=O)O)c(O)c2ccc(Oc3ccccc3)cc12 [Roxa, roxadustat]
cell number of IHMGECs (Roxa alone, 21% O2, 10 days): significant decreases
cell number of IHMGECs, combination of Roxa and 1% O2 (Roxa in 1% O2, 10 days): significant decreases
